Among the data in US20080312244A1, “Squaric Acid Derivatives as Protein Kinase Inhibitors” (priority 2005, published 2008) are melting point and IC50 values, retold here.

SMILES strings stand for the structures. A value given as a limit tells only on which side of the number the result lay.

Tested on in one series: not given
Test: not given
Conditions: not given
For `O=c1c(NCc2cccc(O)c2)c(Nc2ccc(O)c(-c3ccccn3)c2)c1=O` [Compound A1, 3-(3-hydroxybenzylamino)-4-(4-hydroxy-3-pyridin-2-ylphenylamino)cyclobut-3-ene-1,2-dione], the melting point was in the range of 271 to 272 °C.

The target in a further series is T1, CHK1 kinase (Homo sapiens, UniProt O14757).
T1 construct: glutathione S-transferase (GST); made in house; host or cells: Sf21 (S. frugiperda) insect cells, baculovirus expression vector
T1 sequence (O14757 1-476): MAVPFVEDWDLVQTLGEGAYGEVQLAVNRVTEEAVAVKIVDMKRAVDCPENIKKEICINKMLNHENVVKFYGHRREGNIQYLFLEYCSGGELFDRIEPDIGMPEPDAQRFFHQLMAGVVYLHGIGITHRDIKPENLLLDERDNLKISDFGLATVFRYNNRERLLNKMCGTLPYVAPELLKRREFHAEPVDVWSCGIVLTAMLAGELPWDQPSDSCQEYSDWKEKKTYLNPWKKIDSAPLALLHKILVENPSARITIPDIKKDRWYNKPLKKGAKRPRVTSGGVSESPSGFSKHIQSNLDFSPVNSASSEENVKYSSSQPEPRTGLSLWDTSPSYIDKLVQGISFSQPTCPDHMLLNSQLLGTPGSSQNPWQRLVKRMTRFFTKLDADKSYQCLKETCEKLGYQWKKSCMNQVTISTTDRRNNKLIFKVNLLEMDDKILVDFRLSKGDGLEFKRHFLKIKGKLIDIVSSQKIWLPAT
Put plainly: Measurement of the CHK1 kinase activity (flashplate / filter binding method). In kind it is biochemical. To be noted: class symbols defined in table footnotes. As for the experimental part:
CHK1 kinase is expressed for the purposes of protein production in insect cells (Sf21; S. frugiperda) and subsequent purification by affinity chromatography as fusion protein with glutathione S-transferase in a baculovirus expression vector. The cultivation, infection and digestion of the cells as well as the purification of the fusion protein by column chromatography are carried out in accordance with manufacturer-oriented generic working instructions.
The kinase activity is measured using various available measurement systems. In the scintillation proximity method (Sorg et al., J. of. Biomolecular Screening, 2002, 7, 11-19), the flashplate method or the filter binding test, the radioactive phosphorylation of a protein or peptide as substrate is measured using radioactively labelled ATP (γ^32P-ATP, (γ^33P-ATP). In the case of the presence of an inhibitory compound, a reduced radioactive signal, or none at all, can be detected. Furthermore, homogeneous time-resolved fluorescence resonance energy transfer (HTR-FRET) and fluorescence polarisation (FP) technologies are useful as assay methods (Sills et al., J. of Biomolecular Screening, 2002, 191-214).
The test plates used are 384-well streptavidin-coated Flashplates Plus® from Perkin Elmer (Cat. No. SMP410A001 PK). The assay plate is equilibrated with 75 μl of assay buffer per well 30 min before commencement of the experiment. The buffer is sucked out before commencement of the experiment, and the components of the kinase reaction described below are pipetted onto the plate.
CHK1 kinase, a biotinylated substrate peptide (for example CHKtide: […]), is incubated with radioactively labelled ATP in the presence and absence of test substances at […] and a total volume of 50 μl. The reaction is terminated using 25 μl of a 0.2 M EDTA solution. After incubation for 30 min at room temperature, the supernatants are filtered off with suction, and the wells are washed three times with 100 μl of 0.9% NaCl solution each time. The measurement of the bound radioactivity is carried out by means of a scintillation measuring instrument (Topcount NXT, Perkin-Elmer).
The full value used is the inhibitor-free kinase reaction. This should be approximately in the range 3000-4000 cpm. The pharmacological zero value used is staurosporin in a final concentration of 0.1 μM. The inhibitory values (IC50) are determined using the program RS1_MTS ( ).
Kinase reaction conditions per well:
0.15 μg of CHKtide ([…])
50 μl total volume (1-fold assay buffer reaction conditions)
5-20 mU of CHK1 kinase (diluted in 20 mM MOPS pH7.5, 1 mM EDTA, 0.1% β-mercaptoethanol, 0.01% Brij-35, 5% glycerol, 1 mg/ml of BSA) are incubated for 30 min at room temperature in the presence of 30-200 μM CHKtide in 25.5 μl in 1-fold reaction buffer (8 mM MOPS pH7, 0.2 mM EDTA, 10 mM magnesium acetate, 0.02 mM γ^33P-ATP [500-1000 cpm/pmol]). The reaction is stopped using 5 μl of 0.5 M ortho-phosphoric acid and filtered through P81 filter plates. After the filter plates have been washed a number of times, the bound radioactivity is determined in a scintillation counter.
Turning to `O=c1c(NCc2cccc(O)c2)c(Nc2ccc(O)c(-c3ccccn3)c2)c1=O` [Compound A1, 3-(3-hydroxybenzylamino)-4-(4-hydroxy-3-pyridin-2-ylphenylamino)cyclobut-3-ene-1,2-dione], the IC50 was under 100 nM. `O=c1c(NCc2cccc(O)c2)c(Nc2ccc(O)c(-c3ccccc3)c2)c1=O` [Compound A2, 3-(3-Hydroxybenzylamino)-4-(4-hydroxy-3-phenylphenylamino)cyclobut-3-ene-1,2-dione] returned an IC50 of over 1000 nM. Compound `C[C@@H](Nc1c(Nc2ccc(O)c(-c3ccccn3)c2)c(=O)c1=O)c1ccccc1` [Compound A3, 3-(4-Hydroxy-3-pyridin-2-ylphenylamino)-4-[(R)-1-phenylethylamino]cyclobut-3-ene-1,2-dione] came in with an IC50 of over 1000 nM. Still for that read-out and setting: under `COc1cccc([C@@H](C)Nc2c(Nc3ccc(O)c(-c4ccccn4)c3)c(=O)c2=O)c1` [Compound A4, 3-(4-Hydroxy-3-pyridin-2-ylphenylamino)-4-[(R)-1-(3-methoxyphenyl)ethylamino]cyclobut-3-ene-1,2-dione] stands over 1000 nM; under `C[C@@H](Nc1c(Nc2ccc(O)c(-c3ccccn3)c2)c(=O)c1=O)c1cccc(O)c1` [Compound A5, 3-(4-Hydroxy-3-pyridin-2-ylphenylamino)-4-[(R)-1-(3-hydroxyphenyl)ethylamino]cyclobut-3-ene-1,2-dione], under 100 nM; under `C[C@@H](Nc1c(Nc2cccc(-c3ccccn3)c2)c(=O)c1=O)c1cccc(O)c1` [Compound A6, 3-(3-Pyridin-2-ylphenylamino)-4-[(R)-1-(3-hydroxyphenyl)ethylamino]cyclobut-3-ene-1,2-dione], over 1000 nM. `C[C@H](Nc1c(Nc2ccc(O)c(-c3ccccn3)c2)c(=O)c1=O)c1cccc(O)c1` [Compound A10, 3-(4-Hydroxy-3-pyridin-2-ylphenylamino)-4-[(S)-1-(3-hydroxyphenyl)ethylamino]cyclobut-3-ene-1,2-dione] returned a concentration for half-maximal inhibition (IC50) of over 1000 nM.

`NS(=O)(=O)c1cccc(CNc2c(Nc3ccc(O)c(-c4ccccn4)c3)c(=O)c2=O)c1` [Compound A12, 3-(3-Aminosulfonylbenzylamino)-4-(4-hydroxy-3-pyridin-2-ylphenylamino)cyclobut-3-ene-1,2-dione] showed a concentration for half-maximal inhibition (IC50) of under 1000 nM. The compound `O=c1c(NCc2cccc(O)c2)c(Nc2ccc(O)c(-c3ccncc3)c2)c1=O` [Compound A23, 3-(3-Hydroxybenzylamino)-4-(4-hydroxy-3-pyridin-4-ylphenylamino)cyclobut-3-ene-1,2-dione] displayed a half-inhibitory concentration (IC50) of under 1000 nM.

`COc1cccc([C@H](C)Nc2c(Nc3ccc(O)c(-c4ccccn4)c3)c(=O)c2=O)c1` [Compound A59, 3-(4-Hydroxy-3-pyridin-2-ylphenylamino)-4-[(S)-1-(3-methoxyphenyl)ethylamino]cyclobut-3-ene-1,2-dione] yielded an IC50 of over 1000 nM.

Consider `O=c1c(NCCc2cccc(O)c2)c(Nc2ccc(O)c(-c3ccccn3)c2)c1=O` [Compound A60, 3-[2-(3-Hydroxyphenyl)ethylamino]-4-(4-hydroxy-3-pyridin-2-ylphenylamino)cyclobut-3-ene-1,2-dione], for which the IC50 was under 1000 nM. On to `O=c1c(NCc2ccc(O)c(O)c2)c(Nc2ccc(O)c(-c3ccccn3)c2)c1=O` [Compound A61, 3-(3,4-Dihydroxybenzylamino)-4-(4-hydroxy-3-pyridin-2-ylphenylamino)cyclobut-3-ene-1,2-dione], for which the IC50 was under 100 nM. The compound `COc1cc(CNc2c(Nc3ccc(O)c(-c4ccccn4)c3)c(=O)c2=O)ccc1F` [Compound A62, 3-(4-Fluoro-3-methoxybenzylamino)-4-(4-hydroxy-3-pyridin-2-ylphenylamino)cyclobut-3-ene-1,2-dione] registered an IC50 of over 1000 nM. On the same count and under the same terms, the result for `O=c1c(NCc2cc(O)cc(O)c2)c(Nc2ccc(O)c(-c3ccccn3)c2)c1=O` [Compound A63, 3-(3,5-Dihydroxybenzylamino)-4-(4-hydroxy-3-pyridin-2-ylphenylamino)cyclobut-3-ene-1,2-dione] reads under 100 nM.

For the compound `CC(=O)Nc1cccc(CNc2c(Nc3ccc(O)c(-c4ccccn4)c3)c(=O)c2=O)c1` [Compound A64, 3-(3-Acetamidobenzylamino)-4-(4-hydroxy-3-pyridin-2-ylphenylamino)cyclobut-3-ene-1,2-dione], the concentration for half-maximal inhibition (IC50) is under 1000 nM.

Compound `O=c1c(NCc2ccc(F)c(O)c2)c(Nc2ccc(O)c(-c3ccccn3)c2)c1=O` [Compound A65, 3-(4-Fluoro-3-hydroxybenzylamino)-4-(4-hydroxy-3-pyridin-2-ylphenylamino)cyclobut-3-ene-1,2-dione] gave a concentration for half-maximal inhibition (IC50) of under 1000 nM. In turn, `NC(=O)c1cccc(CNc2c(Nc3ccc(O)c(-c4ccccn4)c3)c(=O)c2=O)c1` [Compound A66, 3-(3-Aminocarbonylbenzylamino)-4-(4-hydroxy-3-pyridin-2-ylphenylamino)cyclobut-3-ene-1,2-dione] registered an IC50 of under 1000 nM.

The compound `CNS(=O)(=O)c1cccc(CNc2c(Nc3ccc(O)c(-c4ccccn4)c3)c(=O)c2=O)c1` [Compound A67, 3-(3-Methylaminosulfonylbenzylamino)-4-(4-hydroxy-3-pyridin-2-ylphenylamino)cyclobut-3-ene-1,2-dione] yielded a concentration for half-maximal inhibition (IC50) of under 1000 nM. Regarding `CN(Cc1cccc(O)c1)c1c(Nc2ccc(O)c(-c3ccccn3)c2)c(=O)c1=O` [Compound A68, 3-[(3-Hydroxybenzyl)methylamino]-4-(4-hydroxy-3-pyridin-2-ylphenylamino)cyclobut-3-ene-1,2-dione], the half-inhibitory concentration (IC50) was under 1000 nM. Compound `COc1ccc(Nc2c(NCc3cccc(O)c3)c(=O)c2=O)cc1-n1ccnc1` [Compound A72, 3-(3-Hydroxybenzylamino)-4-(3-imidazol-1-yl-4-methoxyphenylamino)cyclobut-3-ene-1,2-dione] showed an IC50 of over 1000 nM. `O=c1c(NCc2cccc(O)c2)c(Nc2ccc(O)c(-n3cccc3)c2)c1=O` [Compound A73, 3-(3-Hydroxybenzylamino)-4-(4-hydroxy-3-pyrrol-1-ylphenylamino)cyclobut-3-ene-1,2-dione] returned an IC50 of over 1000 nM. `O=c1c(NCc2cccc(O)c2)c(Nc2ccc(O)c(-n3ccnc3)c2)c1=O` [Compound A74, 3-(3-Hydroxybenzylamino)-4-(3-imidazol-1-yl-4-hydroxyphenylamino)cyclobut-3-ene-1,2-dione] came in with an IC50 of over 1000 nM. The same measure, in the same setting: under `O=c1c(NCc2cccc(O)c2)c(Nc2ccc(O)c(-n3cccn3)c2)c1=O` [Compound A75, 3-(3-Hydroxybenzylamino)-4-(4-hydroxy-3-pyrazol-1-ylphenylamino)cyclobut-3-ene-1,2-dione] stands under 1000 nM; under `COc1cccc([C@@H](C)Nc2c(Nc3ccc(O)c(-n4cccn4)c3)c(=O)c2=O)c1` [Compound A76, 3-(4-Hydroxy-3-pyrazol-1-ylphenylamino)-4-[(R)-1-(3-methoxyphenyl)ethylamino]cyclobut-3-ene-1,2-dione], under 1000 nM.

As a reminder, the melting point is the temperature, or range, at which the solid turns liquid. In general, IC50 refers to the concentration at which inhibition is half-maximal. Low values mean inhibition by little substance, high ones a need for much substance.
